Measured values: US4963530A, “Renin inhibitor peptide compounds, a process for the preparation thereof and pharmaceutical composition comprising the same” (Fujisawa Pharmaceutical Company, Ltd., priority 1987, dated 1990)
Numbering of substitutions follows the chain as printed.

Experiments:
[1] = biological target: T1, endogenous renin in human plasma (Homo sapiens, UniProt P00797); assay: Test 1: inhibition of human plasma renin activity (Ang I formation, RIA); assay type: biochemical; conditions: human plasma pool, pH 6.0, 37° C., 90 minutes incubation, Probit method; read-out: IC50 (concentration that inhibited plasma renin activity by 50%)
T1 construct: incubation (37° C.) of the endogenous renin and angiotensinogen in plasma at pH 6.0; from tissue; host or cells: pooled human plasma (EDTA) from male volunteers
T1 sequence (P00797 67-406): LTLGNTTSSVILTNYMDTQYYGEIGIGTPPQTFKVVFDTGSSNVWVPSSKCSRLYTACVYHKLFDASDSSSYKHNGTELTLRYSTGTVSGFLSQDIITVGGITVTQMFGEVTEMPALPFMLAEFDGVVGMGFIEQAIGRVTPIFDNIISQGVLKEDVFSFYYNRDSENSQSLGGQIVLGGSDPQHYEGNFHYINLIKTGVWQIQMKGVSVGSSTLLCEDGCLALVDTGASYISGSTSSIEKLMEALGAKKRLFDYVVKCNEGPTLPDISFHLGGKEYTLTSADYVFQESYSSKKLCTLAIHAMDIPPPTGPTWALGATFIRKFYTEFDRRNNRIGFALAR
Protocol: Human plasma was collected from male volunteers pretreated with no drugs and used as a pool. Disodium salt of ethylenediaminetetraacetic acid (EDTA) was used as the anticoagulant. Plasma renin activity was measured as the rate of angiotensin I (Ang I) formation after incubation (37° C.) of the endogenous renin and angiotensinogen in plasma at pH 6.0. The incubation mixture contained 250 μl of plasma, 5 μl of (phenylmethyl)sulfonyl fluoride, 30 μl of buffer (sodium, potassium-phosphate, pH 6.0), and 15 μl of an appropriate concentration of test compound in 50% ethyl alcohol-water vehicle. The Ang I formed after 90 minutes of incubation was measured by radioimmunoassay (RIA) which was carried out with a commercial kit, RENCTK 100 (manufactured by Commissariat A L'energie Atomique). Samples were incubated in duplicate and each tube was measured in duplicate in the RIA. Percentage inhibition of plasma renin activity was calculated by comparing the amount of Ang I produced with and without a test compound. The concentration of test compound that inhibited plasma renin activity by 50% ) (IC50) was determined by Probit method.

[2] = Test 2: hypotensive effect (mean arterial blood pressure) in sodium-depleted conscious cynomolgus monkeys, oral; assay type: in vivo, cynomolgus monkeys (Macaca fascicularis); conditions: 32 mg/kg po, sodium-depleted (furosemide) conscious cynomolgus monkeys, MAP measured 0-6 hours
Protocol: (§1) Male or female cynomolgus monkeys (Macaca fascicularis) weighing about 2.5-3.5 kg were used. Sodium depletion was achieved by administering furosemide, 15 mg/kg subcutaneously one day before and then 10 mg/kg intravenously 30 minutes before the administration of the test compound.
(§2) Test compounds were dissolved in diluted equimolar hydrochloric acid (pH 5-6) and orally administered to conscious and trained monkeys placed in restraining chairs with pneumatic cuff positioned around the arm for oscillometric measurement of mean arterial blood pressure (MAP) (Model BP-203 NPJ, manufactured by Nippon Colin).
The MAP was measured at 0 (predosing base line), 0.5, 1, 2, 3, 4 and 6 hours after administration of the test compound. The maximum hypotensive effect was calculated as the maximum percentage fall of MAP from the pretreatment value.

[3] = biological target: T2, plasma renin activity (PRA) (Macaca fascicularis, UniProt Q6DLS0); assay: Test 2: inhibition of plasma renin activity (PRA) in sodium-depleted cynomolgus monkeys after oral dosing; assay type: in vivo, cynomolgus monkeys (Macaca fascicularis); conditions: cynomolgus monkey; 32 mg/kg po, sodium-depleted (furosemide) cynomolgus monkeys, plasma collected 0-6 hours after dosing; read-out: Maximum inhibition of PRA
T2 construct: plasmas were obtained for determination of plasma renin activity (PRA); from tissue; host or cells: plasma of sodium-depleted cynomolgus monkeys, collected after oral dosing
T2 sequence (Q6DLS0 67-406): T1 sequence (P00797 67-406) with T2A, I148L, S169A
Protocol: as §1, §2
Blood samples were collected at 0, 0.5, 1, 2, 4 and 6 hours after dosing from the antecubital vein of the monkey into disodium salt of EDTA coated tubes, centrifuged for 10 min (3000 rpm, 4° C.) and plasmas were obtained for determination of plasma renin activity (PRA). PRA was measured as the rate of Ang I formation with the same principle as illustrated in Test 1. 100 μl of sample plasma was mixed with 100 μl of the solution of angiotensinase inhibitors (3 mM 8-hydroxyquinoline sulfate and 5 mM 2,3-dimercaptopropanol , SB-REN-1, SORIN BIOMEDICA, Italy). Half (100 μl) of the mixture was incubated at 37° C. for one hour and Ang I formed was determined by a commercial RIA kit (DINABOTT). […] Percentage inhibition of PRA was calculated by the following formula: [formula] […]

IC50 [1]	inhibition at 32 mg/kg [3]	Compound	Maximum hypotensive effect (maximum percentage fall of MAP from pretreatment value) [2]
60 nM	–	CC(C)CC[C@H](O)[C@H](CC1CCCCC1)NC(=O)[C@H](Cc1c[nH]cn1)N(C)C(=O)[C@H](Cc1ccccc1)NC(=O)N1CCc2ccccc2C1 [Test Compound (d), 2(S)-[N-(1,2,3,4-Tetrahydroisoquinolin-2-ylcarbonyl)-L-phenylalanyl-N^α -methyl-L-histidyl]amino-1-cyclohexyl-3(S)-hydroxy-6-methylheptane]	–
24 nM	–	CC(C)CC[C@H](O)[C@H](CC1CCCCC1)NC(=O)[C@H](Cc1c[nH]cn1)N(C)C(=O)[C@H](Cc1ccccc1)NC(=O)N1CCSCC1 [Test Compound (c), 2(S)-(N-Thiomorpholinocarbonyl-L-phenylalanyl-N^α -methyl-L-histidyl)amino-1-cyclohexyl-3(S)-hydroxy-6-methylheptane]	–
21 nM	96%	CC(C)CC[C@H](O)[C@H](CC1CCCCC1)NC(=O)[C@H](Cc1c[nH]cn1)N(C)C(=O)[C@H](Cc1ccccc1)NC(=O)N1CCOCC1 [Test Compound (b), 2(S)-(N-Morpholinocarbonyl-L-phenylalanyl-N^α -methyl-L-histidyl)amino-1-cyclohexyl-3(S)-hydroxy-6-methylheptane]	25%
61 nM	–	CC(C)CC[C@H](O)[C@H](CC1CCCCC1)NC(=O)[C@H](Cc1c[nH]cn1)NC(=O)[C@H](Cc1ccccc1)NC(=O)N1CCOCC1 [Test Compound (a), 2(S)-(N-Morpholinocarbonyl-L-phenylalanyl-L-histidyl)amino-1-cyclohexyl-3(S)-hydroxy-6-methylheptane]	–
